Values quoted from earlier work in US20250231185A1, “Coronavirus T Cell Epitopes, Megapools and Uses Thereof” (La Jolla Institute for Immunology, priority 2021, published 2025).
Where two headings read alike, the source gives them in different places.

System: CD8+ T cells
Conditions: cited from earlier work
[1] = CD8R (D) megapool epitopes, dominant = recognized by 3 or more donors/different studies
[2] = SARS-CoV-2 Ag S, T cell type recognizing the epitope
[3] = T cell subset (CD4 or CD8) recognizing the SARS-CoV-2-derived epitope
[4] = T cell type (CD4 or CD8) recognizing the SARS-CoV-2 epitope
[5] = SARS-CoV-2-derived CD8 epitopes, dominant = recognized by 3 or more donors/different studies
[6] = CD8RE megapool peptides (non-spike SARS-CoV-2 antigens), dominant epitope Yes/No

Q: For 1742 (TYACWHHSI) [compound 1742], which Dominant [1] is on record?
A: Yes (more dominant epitopes are defined by being recognized by 3 or more donors/different studies)

Q: With 1418 (RASANLAATK) [compound 1418] as the substance, how does the Restriction [2] read?
A: CD8

Q: For 607 (YLKLTDNVYIK) [compound 607], which Restriction [3] is on record?
A: CD8

Q: With 1695 (LLLLDRLNQL) [compound 1695] as the substance, how does the Dominant [1] read?
A: Yes (more dominant epitopes are defined by being recognized by 3 or more donors/different studies)

Q: For 620 (EVKPFITESK) [compound 620], which Restriction [3] is on record?
A: CD8

Q: Which Restriction [2] does the source give for 1349 (RSVASQSII) [compound 1349] here?
A: CD8

Q: For 902 (TFTYASALW) [compound 902], which Restriction [4] is on record?
A: CD8

Q: With 594 (YLFDESGEFKL) [compound 594] as the substance, how does the Dominant [5] read?
A: Yes (more dominant epitopes are defined by being recognized by 3 or more donors/different studies)

Q: And the Restriction [3]?
A: CD8

Q: Which Restriction [2] does the source give for 1334 (YQDVNCTEV) [compound 1334] here?
A: CD8

Q: For 2993 (KTIQPRVEK) [compound 2993], which Dominant [6] is on record?
A: Yes (more dominant epitopes are defined by being recognized by 3 or more donors/different studies)

Q: With 1808 (FTSDYYQLY) [compound 1808] as the substance, how does the Dominant [1] read?
A: Yes (more dominant epitopes are defined by being recognized by 3 or more donors/different studies)

Q: Which Dominant [6] does the source give for 2940 (MEVTPSGTWL) [compound 2940] here?
A: Yes (more dominant epitopes are defined by being recognized by 3 or more donors/different studies)

Q: For 1684 (FPRGQGVPI) [compound 1684], which Dominant [1] is on record?
A: Yes (more dominant epitopes are defined by being recognized by 3 or more donors/different studies)

Q: With 1817 (KLGSLVVRC) [compound 1817] as the substance, how does the Dominant [1] read?
A: Yes (more dominant epitopes are defined by being recognized by 3 or more donors/different studies)

Q: With 1010 (QEYADVFHLY) [compound 1010] as the substance, how does the Restriction [4] read?
A: CD8

Q: Which Dominant [1] does the source give for 1798 (YTELEPPCRF) [compound 1798] here?
A: Yes (more dominant epitopes are defined by being recognized by 3 or more donors/different studies)

Q: Which Dominant [1] does the source give for 1777 (TSEDMLNPNY) [compound 1777] here?
A: Yes (more dominant epitopes are defined by being recognized by 3 or more donors/different studies)

Q: For 1440 (VFVSNGTHWF) [compound 1440], which Restriction [2] is on record?
A: CD8

Q: With 1729 (VLQAVGACV) [compound 1729] as the substance, how does the Dominant [1] read?
A: Yes (more dominant epitopes are defined by being recognized by 3 or more donors/different studies)

Q: For 1696 (LLLDRLNQL) [compound 1696], which Dominant [1] is on record?
A: Yes (more dominant epitopes are defined by being recognized by 3 or more donors/different studies)

Q: Which Restriction [2] does the source give for 1370 (QEVFAQVKQIY) [compound 1370] here?
A: CD8

Q: For 2972 (SSNVANYQK) [compound 2972], which Dominant [6] is on record?
A: Yes (more dominant epitopes are defined by being recognized by 3 or more donors/different studies)

Q: Which Restriction [3] does the source give for 569 (EEIAIILASF) [compound 569] here?
A: CD8

Q: With 3002 (NYMPYFFTL) [compound 3002] as the substance, how does the Dominant [6] read?
A: Yes (more dominant epitopes are defined by being recognized by 3 or more donors/different studies)

Q: For 953 (VVSTGYHFR) [compound 953], which Restriction [4] is on record?
A: CD8

Q: For 665 (MSALNHTKK) [compound 665], which Restriction [3] is on record?
A: CD8

Q: For 3003 (ASMPTTIAK) [compound 3003], which Dominant [6] is on record?
A: Yes (more dominant epitopes are defined by being recognized by 3 or more donors/different studies)

Q: For 915 (GPKVKYLYF) [compound 915], which Restriction [4] is on record?
A: CD8

Q: Which Restriction [4] does the source give for 1086 (VAMPNLYKM) [compound 1086] here?
A: CD8

Q: For 3004 (ILFTRFFYV) [compound 3004], which Dominant [6] is on record?
A: Yes (more dominant epitopes are defined by being recognized by 3 or more donors/different studies)

Q: With 1818 (LEYHDVRVVL) [compound 1818] as the substance, how does the Dominant [1] read?
A: Yes (more dominant epitopes are defined by being recognized by 3 or more donors/different studies)

Q: For 2988 (MLWCKDGHV) [compound 2988], which Dominant [6] is on record?
A: Yes (more dominant epitopes are defined by being recognized by 3 or more donors/different studies)

Q: With 1749 (KQFDTYNLW) [compound 1749] as the substance, how does the Dominant [1] read?
A: Yes (more dominant epitopes are defined by being recognized by 3 or more donors/different studies)

Q: With 1356 (AYSNNSIAI) [compound 1356] as the substance, how does the Restriction [2] read?
A: CD8

Q: For 659 (HTTDPSFLGR) [compound 659], which Restriction [3] is on record?
A: CD8

Q: For 2976 (VLWAHGFEL) [compound 2976], which Dominant [6] is on record?
A: Yes (more dominant epitopes are defined by being recognized by 3 or more donors/different studies)

Q: With 2987 (LLLDDFVEII) [compound 2987] as the substance, how does the Dominant [6] read?
A: Yes (more dominant epitopes are defined by being recognized by 3 or more donors/different studies)

Q: With 2969 (VVYRGTTTYK) [compound 2969] as the substance, how does the Dominant [6] read?
A: Yes (more dominant epitopes are defined by being recognized by 3 or more donors/different studies)

Q: For 1800 (MDLFMRIFTI) [compound 1800], which Dominant [1] is on record?
A: Yes (more dominant epitopes are defined by being recognized by 3 or more donors/different studies)

Q: For 639 (SLINTLNDL) [compound 639], which Restriction [3] is on record?
A: CD8

Q: For 3053 (LEYHDVRVVL) [compound 3053], which Dominant [6] is on record?
A: Yes (more dominant epitopes are defined by being recognized by 3 or more donors/different studies)

Q: With 617 (LYDKLVSSF) [compound 617] as the substance, how does the Restriction [3] read?
A: CD8

Q: Which Restriction [2] does the source give for 1364 (KTSVDCTMYI) [compound 1364] here?
A: CD8

Q: Which results are given for 533 (AQFAPSASAF) [compound 533]?
A: Dominant [5]: Yes (more dominant epitopes are defined by being recognized by 3 or more donors/different studies); Restriction [3]: CD8

Q: Which Restriction [3] does the source give for 637 (AIVSTIQRK) [compound 637] here?
A: CD8

Q: With 1420 (RVDFCGKGY) [compound 1420] as the substance, how does the Restriction [2] read?
A: CD8

Q: With 515 (AEGSRGGSQA) [compound 515] as the substance, how does the Restriction [3] read?
A: CD8

Q: For 640 (VSSPDAVTAY) [compound 640], which Restriction [3] is on record?
A: CD8

Q: For 1454 (NESLIDLQEL) [compound 1454], which Restriction [2] is on record?
A: CD8

Q: Which Restriction [2] does the source give for 1378 (SFIEDLLF) [compound 1378] here?
A: CD8

Q: For 677 (VMYMGTLSY) [compound 677], which Restriction [3] is on record?
A: CD8

Q: With 592 (SELLTPLGI) [compound 592] as the substance, how does the Restriction [3] read?
A: CD8

Q: Which Dominant [1] does the source give for 1689 (SPRWYFYYL) [compound 1689] here?
A: Yes (more dominant epitopes are defined by being recognized by 3 or more donors/different studies)

Q: Which Restriction [4] does the source give for 912 (SDGTGTIY) [compound 912] here?
A: CD8

Q: Which Dominant [6] does the source give for 3019 (SAFAMMFVK) [compound 3019] here?
A: Yes (more dominant epitopes are defined by being recognized by 3 or more donors/different studies)

Q: Which Restriction [3] does the source give for 684 (DVFYKENSY) [compound 684] here?
A: CD8

Q: For 1051 (KNLSDRVVFV) [compound 1051], which Restriction [4] is on record?
A: CD8

Q: Which Dominant [1] does the source give for 1709 (LPAADLDDF) [compound 1709] here?
A: Yes (more dominant epitopes are defined by being recognized by 3 or more donors/different studies)

Q: For 1752 (LLLDDFVEII) [compound 1752], which Dominant [1] is on record?
A: Yes (more dominant epitopes are defined by being recognized by 3 or more donors/different studies)

Q: For 2922 (KMKDLSPRW) [compound 2922], which Dominant [6] is on record?
A: Yes (more dominant epitopes are defined by being recognized by 3 or more donors/different studies)

Q: Which Dominant [1] does the source give for 1733 (VVYRGTTTY) [compound 1733] here?
A: Yes (more dominant epitopes are defined by being recognized by 3 or more donors/different studies)

Q: Which Restriction [4] does the source give for 907 (SEISMDNSPNL) [compound 907] here?
A: CD8

Q: With 993 (FVNEFYAYLR) [compound 993] as the substance, how does the Restriction [4] read?
A: CD8
